ChEMBL document CHEMBL5316344, “Homologation of the Alkyl Side Chain of Antimitotic Phenyl 4-(2-Oxo-3-alkylimidazolidin-1-yl)benzenesulfonate Prodrugs Selectively Targeting CYP1A1-Expressing Breast Cancers Improves Their Stability in Rodent Liver Microsomes” (J Med Chem, 2023)
pIC50, pKi: −log10 of the molar value. Active and inactive are the calls of the source. The rule behind the calls is not given here.

How the values were obtained:
HT-1080 [1] = assay: Antitumor activity against human HT-1080 cells expressing CYP1A1 xenografted in chick embryo assessed as reduction in tumor wet weight at 1 ug, iv incubated for 17 days by CAM assay; format: functional; design: scale not given: the % may be the effect or the level left; details: dose 1 µg, time 17 day
[2] = Toxicity in chick embryo xenografted with human […] cells expressing CYP1A1 assessed as mortality at 1 ug, iv incubated for 17 days; format: organism-based, Gallus gallus; details: chicken, in vivo, 408 h, dose 1 µg, time 17 day
[3] = Selectivity ratio, ratio of IC50 for antiproliferative activity against human HT-1080 cells transfected with empty vector to IC50 for antiproliferative activity against human HT-1080 cells expressing CYP1A1; format: functional
[4] = Toxicity in chick embryo xenografted with human […] cells assessed as mortality at 1 ug, iv incubated for 17 days; format: organism-based, Gallus gallus; details: chicken, in vivo, 408 h, dose 1 µg, time 17 day
[5] = Stability in rat liver microsomes assessed as intrinsic clearance incubated for 60 mins by HPLC analysis; format: ADME, Microsome; details: read-out: CLH
MCF7 [6] = assay: Induction of cell cycle arrest in human MCF7 cells expressing CYP1A1 assessed as accumulation of cells at G0/G1 phase at 30 nM incubated for 48 hrs by DAPI staining based flow cytometric analysis (reference value: 74+/-2 %); format: functional
[7] = Stability in mouse liver microsomes assessed as half life incubated for 60 mins by HPLC analysis; format: ADME, Microsome
HT-1080 [8] = assay: Antitumor activity against human HT-1080 cells transfected with empty vector xenografted in chick embryo assessed as reduction in tumor wet weight at 1 ug, iv incubated for 17 days by CAM assay; format: functional; design: scale not given: the % may be the effect or the level left; details: dose 1 µg, time 17 day
[9] = Stability in human liver microsomes assessed as half life incubated for 60 mins by HPLC analysis; format: ADME, Microsome
[10] = Stability in rat liver microsomes assessed as half life incubated for 60 mins by HPLC analysis; format: ADME, Microsome
M21 = assay: Antiproliferative activity against human M21 cells assessed as cell growth inhibition incubated for 48 hrs by sulforhodamine B assay; format: functional, cell-based; details: M21, 48 h
HT-1080 [11] = assay: Antitumor activity against human HT-1080 cells xenografted in chick embryo assessed as reduction in tumor wet weight at 1 ug, iv incubated for 17 days by CAM assay; format: functional; design: scale not given: the % may be the effect or the level left; details: dose 1 µg, time 17 day
HT-1080 [12] = assay: Antiproliferative activity against human HT-1080 cells expressing CYP1A1 assessed as cell growth inhibition incubated for 48 hrs by sulforhodamine B assay; format: functional, cell-based; details: HT-1080, 48 h
HT-1080 [13] = assay: Antiproliferative activity against human HT-1080 cells transfected with empty vector assessed as cell growth inhibition incubated for 48 hrs by sulforhodamine B assay; format: functional, cell-based; details: HT-1080, 48 h
MCF7 [14] = assay: Induction of cell cycle arrest in human MCF7 cells expressing CYP1A1 assessed as accumulation of cells at G2/M phase at 30 nM incubated for 48 hrs by DAPI staining based flow cytometric analysis (reference value: 16+/-2 %); format: functional
[15] = Selectivity ratio, ratio of IC50 for antiproliferative activity against human M21 cells to IC50 for antiproliferative activity against human MCF7 cells expressing CYP1A1; format: functional
[16] = Selectivity ratio, ratio of IC50 for antiproliferative activity against human HT-1080 cells to IC50 for antiproliferative activity against human HT-1080 cells expressing CYP1A1; format: functional
[17] = Toxicity in chick embryo xenografted with human […] cells transfected with empty vector assessed as mortality at 1 ug, iv incubated for 17 days; format: organism-based, Gallus gallus; details: chicken, in vivo, 408 h, dose 1 µg, time 17 day
[18] = Selectivity ratio, ratio of IC50 for antiproliferative activity against human HT-29 cells to IC50 for antiproliferative activity against human MCF7 cells expressing CYP1A1; format: functional
HT-1080 [19] = assay: Antiproliferative activity against human HT-1080 cells assessed as cell growth inhibition incubated for 48 hrs by sulforhodamine B assay; format: functional, cell-based; details: HT-1080, 48 h
Cytochrome P450 1A1 = molecular target: T1, Cytochrome P450 1A1 (Homo sapiens, UniProt P04798); assay: Binding affinity to human CYP1A1 assessed as inhibition of conversion of 7-ethoicyresorufin into fluorescent resorufin by measuring inhibition constant preincubated for 5 mins followed by […] addition measured every minute for 15 mins by EROD assay; format: ADME
T1 sequence (P04798 whole entry): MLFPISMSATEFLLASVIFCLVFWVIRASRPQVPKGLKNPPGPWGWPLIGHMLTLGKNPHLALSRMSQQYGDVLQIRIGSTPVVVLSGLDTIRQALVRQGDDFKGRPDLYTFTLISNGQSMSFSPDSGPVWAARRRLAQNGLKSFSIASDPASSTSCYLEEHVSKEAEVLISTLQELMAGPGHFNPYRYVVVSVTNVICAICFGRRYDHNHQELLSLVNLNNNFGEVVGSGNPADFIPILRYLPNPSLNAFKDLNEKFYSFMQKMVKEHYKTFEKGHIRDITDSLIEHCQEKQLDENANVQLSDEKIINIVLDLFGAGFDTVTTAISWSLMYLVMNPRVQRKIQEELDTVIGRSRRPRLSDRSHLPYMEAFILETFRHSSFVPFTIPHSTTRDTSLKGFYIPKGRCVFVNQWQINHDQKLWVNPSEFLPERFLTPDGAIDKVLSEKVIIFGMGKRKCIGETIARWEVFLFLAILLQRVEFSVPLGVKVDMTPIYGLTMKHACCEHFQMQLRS

MCF7 [20] = assay: Induction of cell cycle arrest in human MCF7 cells expressing CYP1A1 assessed as accumulation of cells at S phase at 30 nM incubated for 48 hrs by DAPI staining based flow cytometric analysis (reference value: 11+/-1 %); format: functional
HT-29 = assay: Antiproliferative activity against human HT-29 cells assessed as cell growth inhibition incubated for 48 hrs by sulforhodamine B assay; format: functional, cell-based; details: HT-29, 48 h
[21] = Stability in human liver microsomes assessed as intrinsic clearance incubated for 60 mins by HPLC analysis; format: ADME, Microsome; details: read-out: CLH
[22] = Stability in mouse liver microsomes assessed as intrinsic clearance incubated for 60 mins by HPLC analysis; format: ADME, Microsome; details: read-out: CLH
MCF7 [23] = assay: Antiproliferative activity against human MCF7 cells expressing CYP1A1 assessed as cell growth inhibition incubated for 48 hrs by sulforhodamine B assay; format: functional, cell-based; details: MCF7, 48 h
Tubulin (Homo sapiens) [24] = molecular target: T2, Tubulin (Homo sapiens) (UniProt P68371+Q9H4B7+P0DPH7+P68366+Q13509+Q71U36+P04350+Q3ZCM7+P07437+P68363+Q9BQE3+Q6PEY2+Q13885+Q9BVA1+Q9BUF5); assay: Disruption of microtubules in human MCF7 cells expressing CYP1A1 assessed as cytoskeleton disruption at 65 nM measured after 48 hrs by DAPI staining based fluorescence microscopic analysis; format: cell-based
MCF7 [25] = assay: Induction of cell cycle arrest in human MCF7 cells expressing CYP1A1 assessed as accumulation of cells at G2/M phase at 145 nM incubated for 48 hrs by DAPI staining based flow cytometric analysis (reference value: 16+/-2 %); format: functional
MCF7 [26] = assay: Induction of cell cycle arrest in human MCF7 cells expressing CYP1A1 assessed as accumulation of cells at G0/G1 phase at 145 nM incubated for 48 hrs by DAPI staining based flow cytometric analysis (reference value: 74+/-2 %); format: functional
MCF7 [27] = assay: Induction of cell cycle arrest in human MCF7 cells expressing CYP1A1 assessed as accumulation of cells at S phase at 145 nM incubated for 48 hrs by DAPI staining based flow cytometric analysis (reference value: 11+/-1 %); format: functional
MCF7 [28] = assay: Induction of cell cycle arrest in human MCF7 cells expressing CYP1A1 assessed as accumulation of cells at G2/M phase at 690 nM incubated for 48 hrs by DAPI staining based flow cytometric analysis (reference value: 16+/-2 %); format: functional
MCF7 [29] = assay: Induction of cell cycle arrest in human MCF7 cells expressing CYP1A1 assessed as accumulation of cells at G0/G1 phase at 690 nM incubated for 48 hrs by DAPI staining based flow cytometric analysis (reference value: 74+/-2 %); format: functional
MCF7 [30] = assay: Induction of cell cycle arrest in human MCF7 cells expressing CYP1A1 assessed as accumulation of cells at S phase at 690 nM incubated for 48 hrs by DAPI staining based flow cytometric analysis (reference value: 11+/-1 %); format: functional
Tubulin (Homo sapiens) [31] = molecular target: T2, Tubulin (Homo sapiens); assay: Disruption of microtubules in human MCF7 cells expressing CYP1A1 assessed as cytoskeleton disruption at 970 nM measured after 48 hrs by DAPI staining based fluorescence microscopic analysis; format: cell-based
MCF7 [32] = assay: Induction of cell cycle arrest in human MCF7 cells expressing CYP1A1 assessed as accumulation of cells at S phase at 1100 nM incubated for 48 hrs by DAPI staining based flow cytometric analysis (reference value: 11+/-1 %); format: functional
MCF7 [33] = assay: Induction of cell cycle arrest in human MCF7 cells expressing CYP1A1 assessed as accumulation of cells at G0/G1 phase at 1100 nM incubated for 48 hrs by DAPI staining based flow cytometric analysis (reference value: 74+/-2 %); format: functional
MCF7 [34] = assay: Induction of cell cycle arrest in human MCF7 cells expressing CYP1A1 assessed as accumulation of cells at G2/M phase at 1100 nM incubated for 48 hrs by DAPI staining based flow cytometric analysis (reference value: 16+/-2 %); format: functional
Tubulin (Homo sapiens) [35] = molecular target: T2, Tubulin (Homo sapiens); assay: Disruption of microtubules in human MCF7 cells expressing CYP1A1 assessed as cytoskeleton disruption at 1305 nM measured after 48 hrs by DAPI staining based fluorescence microscopic analysis; format: cell-based

microsomal CLint [5] [µL/min/mg]	half-life [7] [min]	half-life [9] [min]	half-life [10] [min]	pIC50 (HT-1080 [12])	pIC50 (HT-1080 [13])	pIC50 (HT-1080 [19])	pKi (Cytochrome P450 1A1)	pIC50 (HT-29)	microsomal CLint [21] [µL/min/mg]	microsomal CLint [22] [µL/min/mg]	pIC50 (MCF7 [23])	Structure (SMILES)	Ratio IC50 [3]	pIC50 (M21)	Ratio IC50 [15]	Ratio IC50 [16]	Ratio IC50 [18]	also measured
9	111	120	160	7.52	< 5.30	5.34	5.92	< 5.30	12	12.5	7.30	CCCCCN1CCN(c2ccc(S(=O)(=O)Oc3cc(Cl)cc(Cl)c3)cc2)C1=O	>167	< 5.30	>100	152	>100	Activity (Tubulin (Homo sapiens) [24]): Active; Activity (MCF7 [25]): 34%; Activity (MCF7 [26]): 49%; Activity (MCF7 [27]): 17%
24	93	77	62	7.52	< 4.90	5.39	6.72	< 4.90	19	15	6.85	CCCCCN1CCN(c2ccc(S(=O)(=O)Oc3cccc(I)c3)cc2)C1=O	>417	< 4.90	>90	137	>90	Activity (MCF7 [28]): 45%; Activity (MCF7 [29]): 37%; Activity (MCF7 [30]): 18%; Activity (Tubulin (Homo sapiens) [31]): Active
12	130	290	110	7.05	< 4.90	5.16	6.22	< 4.90	5	11	6.40	CCCCCN1CCN(c2ccc(S(=O)(=O)Oc3cccc(Cl)c3)cc2)C1=O	>139	< 4.90	>31	76	>31	Activity (MCF7 [32]): 13%; Activity (MCF7 [33]): 45%; Activity (MCF7 [34]): 42%; Activity (Tubulin (Homo sapiens) [35]): Active

Structure (SMILES)	microsomal CLint [5] [µL/min/mg]	half-life [7] [min]	half-life [9] [min]	half-life [10] [min]	pIC50 (HT-1080 [12])	pIC50 (HT-1080 [13])	pIC50 (HT-1080 [19])	pKi (Cytochrome P450 1A1)	pIC50 (HT-29)	microsomal CLint [21] [µL/min/mg]	microsomal CLint [22] [µL/min/mg]	pIC50 (MCF7 [23])	Ratio IC50 [3]	pIC50 (M21)	Ratio IC50 [15]	Ratio IC50 [16]	Ratio IC50 [18]	also measured
CCCCN1CCN(c2ccc(S(=O)(=O)Oc3cc(OC)c(OC)c(OC)c3)cc2)C1=O	77	18	92	18.1	8.22	6.09	5.92	6.85	< 5.30	15	77	7.54	137	5.62	83	200	>172	Activity (HT-1080 [1]): 51%; Activity [2]: Non-Toxic; Activity [4]: Non-Toxic; Activity (MCF7 [6]): 38%; Activity (HT-1080 [8]): 108%; Activity (HT-1080 [11]): 85%; Activity (MCF7 [14]): 51%; Activity [17]: Non-Toxic; Activity (MCF7 [20]): 11%
